The target of one assay is T1, Cdk4/cyclin D1 (Homo sapiens, UniProt P11802).
T1 construct: made in house; host or cells: Sf9 insect cells
The assay can be described thus: Biochemical kinase assay Cdk4/cyclin D1. The following applies: Table 6. The method, boiled down: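 Sf9-expressed Cdk/cyclin heterodimers phosphorylate GST-Rb (residues 379–928, 40 μg) with 50 μM ATP plus [γ-33P]ATP, pH 7.5, 10% DMSO, 15 min at 30 °C. Compounds 1 nM–10 μM. 33P captured on glutathione-sepharose and scintillation-counted; activity relative to DMSO control after EDTA-background subtraction.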

The target of assay [1] is protein kinase C (mixed isozymes). As to the kind of experiment: Protein kinase C TCA precipitation assay. The class given is biochemical, rat. Conditions: Table 5; read-out: PKC IC50. The procedure:
Enzymes: Cdc2/cyclin B was obtained from commercial sources. Cdk2/his-cyclin Eshort was expressed in Sf9 cells. Cdk2/cyclin A, cdk4/cyclin D1, and cdk6/cyclin D2 were expressed in Sf9 cells. Protein kinase A (catalytic subunit, from bovine heart) and protein kinase C (mixed isozymes from rat brain) were obtained from commercial sources.
Protein kinase C and protein kinase A were assayed using a TCA precipitation assay with Histone H1 as a substrate. For protein kinase A, the final assay contained 50 mM Tris, 10 mM MgCl2, 1 mM dithiothreitol, pH 7.5, 12 μM adenosine triphosphate, 10% (v/v) dimethylsulfoxide (from compounds), 20 μg Histone H1, 2 μCi [γ-^32P] adenosine triphosphate, 0.2 U protein kinase A in a 100 μL assay. A protein kinase C assay contained 50 mM Tris, 10 mM MgCl2, 1 mM dithiothreitol, 0.8 mM CaCl2, pH 7.5, 5 μM adenosine triphosphate, 10% (v/v) dimethylsulfoxide (from compounds), 20 μg Histone H1, 2 μCi [γ-^32P] adenosine triphosphate, 0.01 U protein kinase C in a 50 μL assay. The assays were started by the addition of enzyme, allowed to react for 10 min at 30° C., and stopped by adding 0.4 volumes of 237 mM disodium ethylenediamine tetraacetate, 105 mM adenosine triphosphate, pH 8.0. […] The filters were washed ten times with 25% (w/v) trichloroacetic acid, and the amount of incorporated [^32P]phosphate was determined by adding 100 μl Microscint and scintillation counting.

The test system of another assay is HCT-116 cells. As to the kind of experiment: Calcein AM viability assay, HCT-116. The class given is cell-based. The following applies: Homo sapiens, HCT-116, plus 1 mg/ml alpha acidic glycoprotein and 45 mg/ml human serum albumin; read-out: HCT-116 IC50 Protein adjusted. In a few lines: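 Cells plated (1,000 HCT-116 in RPMI-1640/10% FCS; 4,000 IMR90 in MEM-alpha/10% FCS), adhered overnight, then given 7 doses of compound at 0-250 nM for 72 h at 37 °C. Viability read by Calcein AM fluorescence (ex 485, em 530) after 75 min; IC50 derived.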

pIC50: −log10 of the molar value.

T1 sequence (P11802 whole entry, species assumed): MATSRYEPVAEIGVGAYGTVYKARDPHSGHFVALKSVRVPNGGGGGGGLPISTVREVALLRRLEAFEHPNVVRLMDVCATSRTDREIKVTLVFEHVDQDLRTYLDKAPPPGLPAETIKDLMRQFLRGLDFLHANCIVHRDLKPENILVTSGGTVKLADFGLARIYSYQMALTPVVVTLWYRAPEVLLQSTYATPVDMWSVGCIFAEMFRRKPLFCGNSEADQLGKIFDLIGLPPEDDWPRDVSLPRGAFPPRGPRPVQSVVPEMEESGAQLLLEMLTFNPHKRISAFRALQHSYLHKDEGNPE
T1 sequence (P24385 whole entry partner, species assumed): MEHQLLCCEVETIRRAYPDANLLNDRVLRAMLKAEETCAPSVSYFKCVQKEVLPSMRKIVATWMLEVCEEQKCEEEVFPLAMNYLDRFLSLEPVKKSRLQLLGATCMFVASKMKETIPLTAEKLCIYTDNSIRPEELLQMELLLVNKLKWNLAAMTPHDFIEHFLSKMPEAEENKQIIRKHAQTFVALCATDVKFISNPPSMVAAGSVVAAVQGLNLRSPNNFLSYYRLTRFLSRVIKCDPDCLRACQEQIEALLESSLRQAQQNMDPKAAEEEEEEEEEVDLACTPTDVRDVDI

On Cdk4/cyclin D1, `CC(C)N1CCN(C(=O)COc2ccc(-c3[nH]nc4c3C(=O)c3c(NC(=O)NN5CCOCC5)cccc3-4)cc2)CC1.Cl` [Compound A37] gave a pIC50 greater than 7.00. For `CC(C)c1nn(-c2c(Cl)cccc2Cl)c2nc(Cc3ccc(O)c(CN4CCN(C(C)C)CC4)c3)[nH]c(=O)c12` [Compound C], the pIC50 in assay [1] was less than 5.00; in the assay on HCT-116 cells, greater than 6.00.
